Legend:
CYP2C9 = CYP2C9 (Homo sapiens, UniProt P11712); assay: CYP2C9 inhibition, probe/drug metabolism in human liver microsomes
Procedure: (§1) The total volume of the in vitro metabolic incubation system is 200 μL. The probe substrate concentration in the system is shown in Supplementary Table S1. […] The reaction sample was preheated in a constant temperature mixer at 37°C. Then NADP^+ was added to the system to initiate the reaction. The reaction time is 30 min, and 100 μL acetonitrile will be added on time to quickly terminate the reaction, followed by centrifugation at 4°C and 20,000 g for 20 min. The supernatant was analyzed using liquid chromatography tandem mass spectrometry (LC-MS/MS), and the activity of CYP enzymes was evaluated by the generation of probe metabolites. The mass spectrometry information of probe substrates is shown in Supplementary Table S3.
(§2) The isolated triterpenoids (1–66) were used to establish a compounds library. The inhibitory effects of 66 triterpenoids from G. lucidum on seven subtypes of CYP enzymes (CYP1A2, 2A6, 2D6, 2B6, 2C9, 2C19, 3A4) were evaluated followed the above-mentioned experimental procedures.
For 16 clinical drugs metabolized by CYP enzymes, potential DDI studies were conducted on triterpenoids (6, 25) of G. lucidum, and IC50 values were measured.
Clinical drugs: Phenacetin, melatonin, clozapine and riluzole are metabolized by CYP1A2. Bupropion, artemisinin, efavirenz and sertraline are metabolized by CYP2B6. Diclofenac, valsartan, glimepiride and glibenclamide are metabolized by CYP2C9. Midazolam, imatinib, simvastatin and diltiazem are metabolized by CYP3A4.
(§3) Table S1. The information of probes for CYPs activity assay
Table S2. Information of clinical drugs

CYP2D6 = CYP2D6 (Homo sapiens, UniProt P10635); assay: CYP2D6 inhibition, dextromethorphan probe in human liver microsomes; conditions: human, human liver microsomes, pH 7.4, probe dextromethorphan 5 μM, Residual activity (%) CYP2D6, HLM 0.5 mg/mL
CYP2D6, sequence (P10635 whole entry): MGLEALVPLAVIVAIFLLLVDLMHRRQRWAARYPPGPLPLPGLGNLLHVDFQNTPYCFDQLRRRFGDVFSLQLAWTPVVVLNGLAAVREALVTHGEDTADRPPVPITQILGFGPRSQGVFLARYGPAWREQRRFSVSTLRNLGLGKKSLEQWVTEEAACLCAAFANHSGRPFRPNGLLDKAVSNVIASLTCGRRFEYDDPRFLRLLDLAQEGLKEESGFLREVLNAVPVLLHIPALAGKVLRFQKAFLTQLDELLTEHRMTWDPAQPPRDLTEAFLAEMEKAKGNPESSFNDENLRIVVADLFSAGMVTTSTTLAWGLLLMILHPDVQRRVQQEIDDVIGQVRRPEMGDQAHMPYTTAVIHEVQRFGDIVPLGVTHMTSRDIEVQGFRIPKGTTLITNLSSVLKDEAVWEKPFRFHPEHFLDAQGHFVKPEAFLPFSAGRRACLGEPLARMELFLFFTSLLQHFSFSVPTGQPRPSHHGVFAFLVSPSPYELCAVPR
Procedure: as §1, §2, §3

CYP2C19 = CYP2C19 (Homo sapiens, UniProt P33261); assay: CYP2C19 inhibition, S-mephenytoin probe in human liver microsomes
CYP2C19, sequence (P33261 whole entry): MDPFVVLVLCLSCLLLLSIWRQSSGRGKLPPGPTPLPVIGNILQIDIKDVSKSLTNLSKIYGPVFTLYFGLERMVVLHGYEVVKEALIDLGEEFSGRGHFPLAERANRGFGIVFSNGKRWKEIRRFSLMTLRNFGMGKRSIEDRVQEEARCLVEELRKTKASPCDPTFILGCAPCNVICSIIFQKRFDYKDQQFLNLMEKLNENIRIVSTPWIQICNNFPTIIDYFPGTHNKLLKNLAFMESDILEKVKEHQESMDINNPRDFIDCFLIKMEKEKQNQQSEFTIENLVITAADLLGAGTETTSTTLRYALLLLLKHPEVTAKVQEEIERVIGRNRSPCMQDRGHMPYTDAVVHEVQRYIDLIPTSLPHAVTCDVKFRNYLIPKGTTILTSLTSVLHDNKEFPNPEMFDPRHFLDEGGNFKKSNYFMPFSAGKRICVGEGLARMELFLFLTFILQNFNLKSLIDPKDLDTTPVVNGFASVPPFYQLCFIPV
Procedure: as §1, §2, §3

CYP2C9, sequence (P11712 whole entry): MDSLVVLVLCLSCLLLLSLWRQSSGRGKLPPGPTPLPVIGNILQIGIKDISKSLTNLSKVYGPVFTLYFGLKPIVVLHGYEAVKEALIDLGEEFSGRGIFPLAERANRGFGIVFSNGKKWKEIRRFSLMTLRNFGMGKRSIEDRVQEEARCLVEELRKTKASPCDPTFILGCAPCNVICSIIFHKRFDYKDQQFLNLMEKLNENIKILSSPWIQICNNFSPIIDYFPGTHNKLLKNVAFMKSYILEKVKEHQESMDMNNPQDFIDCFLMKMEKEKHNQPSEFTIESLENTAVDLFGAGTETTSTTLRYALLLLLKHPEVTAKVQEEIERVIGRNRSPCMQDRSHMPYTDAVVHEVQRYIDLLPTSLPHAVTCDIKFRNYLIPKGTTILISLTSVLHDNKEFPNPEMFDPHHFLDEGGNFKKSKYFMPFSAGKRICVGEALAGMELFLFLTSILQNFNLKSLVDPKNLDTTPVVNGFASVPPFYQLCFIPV

CC(CCC(O)C(C)(O)CO)C1CCC2(C)C3=C(C(=O)CC12C)C1(C)CCC(=O)C(C)(C)C1CC3 (centres unmarked) [Compound 25, ganodrol C]
IC50 (CYP2C9; IC50 against metabolism of glibenclamide mediated by CYP2C9, substrate glibenclamide 50 μM, 30 min): 10.3 ± 0.12 µM | IC50 (CYP2C9; IC50 against metabolism of glimepiride mediated by CYP2C9, substrate glimepiride 50 μM, 30 min): 12.3 ± 0.43 µM | IC50 (CYP2C9; IC50 against metabolism of valsartan mediated by CYP2C9, substrate valsartan 30 μM, 30 min): 14.3 ± 1.14 µM | IC50 at 30 min (CYP2C9; human, human liver microsomes, pH 7.4, probe diclofenac 4 μM, IC50 against CYP 2C9, substrate diclofenac 4 μM, HLM): 11.4 µM | activity at 30 min (CYP2C9; human, human liver microsomes, pH 7.4, probe diclofenac 4 μM, Residual activity (%) CYP2C9, HLM 0.5 mg/mL, diclofenac 4 μM, 30 min): 32 ± 2.74% | activity at 30 min (CYP2D6): 68.22 ± 0.44% | IC50 (CYP2C19): 15.4 µM | activity at 30 min (CYP2C19; human, human liver microsomes, pH 7.4, probe S-mephenytoin 50 μM, Residual activity (%) CYP2C19, HLM 0.5 mg/mL, S-mephenytoin 50 μM, 30 min): 39.2 ± 4.83%

Source: paper PMC11605156, “Triterpenoids from Ganoderma lucidum inhibit cytochrome P450 enzymes interfering with the metabolic process of specific clinical drugs” (Frontiers in Pharmacology, 2024)
